The results in this text go back to patent publication US20260285855A1, “HETEROARYL DERIVATIVES AS DDRS INHIBITORS” (CHIESI FARMACEUTICI S.P.A., priority 2023, published 2026).

Read-outs that look alike come from different tables or passages of the source. A value given as a limit tells only on which side of the number the result lay.

One experiment has as its target T1, DDR2 (Homo sapiens, UniProt Q16832).
T1 construct: purchased Life Technologies
T1 sequence (Q16832 22-855): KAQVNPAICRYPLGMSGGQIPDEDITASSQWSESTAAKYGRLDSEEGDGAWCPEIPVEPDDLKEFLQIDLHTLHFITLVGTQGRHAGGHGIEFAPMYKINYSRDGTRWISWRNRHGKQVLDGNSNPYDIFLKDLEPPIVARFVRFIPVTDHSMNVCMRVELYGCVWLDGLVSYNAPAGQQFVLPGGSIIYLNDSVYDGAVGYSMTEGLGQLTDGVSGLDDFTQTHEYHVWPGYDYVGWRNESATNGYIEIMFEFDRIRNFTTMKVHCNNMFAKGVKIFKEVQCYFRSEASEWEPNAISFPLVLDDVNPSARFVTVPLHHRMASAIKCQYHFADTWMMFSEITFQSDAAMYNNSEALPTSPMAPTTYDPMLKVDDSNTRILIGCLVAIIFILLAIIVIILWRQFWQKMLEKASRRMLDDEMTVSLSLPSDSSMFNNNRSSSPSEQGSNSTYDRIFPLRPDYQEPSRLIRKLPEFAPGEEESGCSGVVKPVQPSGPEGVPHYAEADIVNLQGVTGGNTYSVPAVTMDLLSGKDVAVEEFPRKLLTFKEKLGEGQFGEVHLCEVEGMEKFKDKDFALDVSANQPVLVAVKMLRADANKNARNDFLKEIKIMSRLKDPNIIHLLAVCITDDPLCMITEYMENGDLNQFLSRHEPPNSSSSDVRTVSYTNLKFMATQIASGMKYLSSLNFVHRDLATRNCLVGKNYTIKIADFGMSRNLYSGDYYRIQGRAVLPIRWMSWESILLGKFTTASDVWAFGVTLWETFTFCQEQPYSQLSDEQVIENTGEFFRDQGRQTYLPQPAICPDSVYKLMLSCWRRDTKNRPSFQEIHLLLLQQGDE
In words: LanthaScreen Europium Kinase Binding assay, DDR2. On the procedure: (§1) DDR1 and DDR2 binding assays were performed using Life Technologies LanthaScreen™ Europium Kinase Binding assay. […] IC50 values were determined in GraphPad Prism 7.0 software, using 4 parameter model: log (inhibitor) vs. response. IC50 values were converted in Ki using the Cheng-Prusoff equation (Ki-IC50/(1+ [Tracer]/Kd).
For orientation: TR-FRET usually uses a lanthanide donor and a delayed reading to cut background.

The target of the next experiment is T2, DDR1 (Homo sapiens, UniProt Q08345).
T2 construct: purchased Carna Biosciences
In words: LanthaScreen Europium Kinase Binding assay, DDR1. On the procedure:
as §1

Setting [1] is: 5 nM DDR2, 10 nM Kinase Tracer 178, 1 h at rt, Ki from IC50 by Cheng-Prusoff, read-out: Ki DDR2.
Setting [2] is: 5 nM DDR1, 20 nM Kinase Tracer 178, 1 h at rt, Ki from IC50 by Cheng-Prusoff, read-out: Ki DDR1.
The mark [3] stands for this setting: same binding assay, numeric values.
The mark [4] stands for this setting: same binding assay, numeric values, read-out: DDR2 Ki.
Where [5] appears, read: same binding assay, numeric values, read-out: DDR1 Ki.

T2 sequence (Q08345 19-913): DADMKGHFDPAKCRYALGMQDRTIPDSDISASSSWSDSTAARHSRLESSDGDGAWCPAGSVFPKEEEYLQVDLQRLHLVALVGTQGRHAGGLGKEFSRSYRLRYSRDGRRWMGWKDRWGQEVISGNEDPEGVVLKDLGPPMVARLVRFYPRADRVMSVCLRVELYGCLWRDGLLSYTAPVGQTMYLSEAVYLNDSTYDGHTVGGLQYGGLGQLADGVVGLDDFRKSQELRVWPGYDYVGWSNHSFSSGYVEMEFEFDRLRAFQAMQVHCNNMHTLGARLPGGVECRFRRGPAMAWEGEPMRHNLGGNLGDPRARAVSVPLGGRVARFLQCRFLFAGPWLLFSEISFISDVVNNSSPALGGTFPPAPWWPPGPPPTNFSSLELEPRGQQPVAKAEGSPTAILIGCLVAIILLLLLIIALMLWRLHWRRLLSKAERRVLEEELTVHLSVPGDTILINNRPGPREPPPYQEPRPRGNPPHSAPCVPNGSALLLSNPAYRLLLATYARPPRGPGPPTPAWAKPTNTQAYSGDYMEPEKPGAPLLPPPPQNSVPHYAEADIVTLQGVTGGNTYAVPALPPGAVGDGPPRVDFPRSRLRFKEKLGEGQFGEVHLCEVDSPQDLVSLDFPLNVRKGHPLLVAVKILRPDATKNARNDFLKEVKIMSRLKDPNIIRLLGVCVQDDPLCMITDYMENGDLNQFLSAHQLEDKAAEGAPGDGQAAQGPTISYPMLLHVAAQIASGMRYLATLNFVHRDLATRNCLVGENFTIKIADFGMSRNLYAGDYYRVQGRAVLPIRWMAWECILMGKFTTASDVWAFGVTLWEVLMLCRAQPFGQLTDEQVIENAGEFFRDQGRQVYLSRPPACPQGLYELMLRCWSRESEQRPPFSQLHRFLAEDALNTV

Consider `CN(C(=O)Nc1cc(C(F)(F)F)cc(Br)n1)C1CC2(C1)CN(C(=O)c1cnn3ccn(C)c13)C2` [Example 308, 3-(6-bromo-4-(trifluoromethyl)pyridin-2-yl)-1-methyl-1-(2-(1-methyl-1H-imidazo[1,2-b]pyrazole-7-carbonyl)-2-azaspiro[3.3]heptan-6-yl)urea], for which the Ki at DDR2 (setting [1]) and on DDR1 (setting [2]) was less than 5 nM in each case.
Regarding `CCc1ncc(C(F)(F)F)cc1NC(=O)NC1CC2(C1)CN(C(=O)c1cnn3ccn(C)c13)C2` [Example 309, 1-(2-ethyl-5-(trifluoromethyl)pyridin-3-yl)-3-(2-(1-methyl-1H-imidazo[1,2-b]pyrazole-7-carbonyl)-2-azaspiro[3.3]heptan-6-yl)urea], the Ki (in general, a measure of affinity in units of concentration, obtained from inhibition or displacement) at DDR2 (setting [1]) was 5 to 25 nM; at DDR1 (setting [2]) it was less than 5 nM.
In the same order, the values of `CCc1ncc(C(F)(F)F)cc1NC(=O)N(C)C1CC2(C1)CN(C(=O)c1cnn3ccn(C)c13)C2` [Example 310, 3-(2-ethyl-5-(trifluoromethyl)pyridin-3-yl)-1-methyl-1-(2-(1-methyl-1H-imidazo[1,2-b]pyrazole-7-carbonyl)-2-azaspiro[3.3]heptan-6-yl)urea] are 25 to 100 nM and 5 to 25 nM.
For the molecule `Cn1ccn2ncc(C(=O)N3CC4(CC(OC(=O)Nc5cc(C(F)(F)F)cnn5)C4)C3)c12` [Example 311, 2-(1-methyl-1H-imidazo[1,2-b]pyrazole-7-carbonyl)-2-azaspiro[3.3]heptan-6-yl(5-(trifluoromethyl)pyridazin-3-yl)carbamate], the Ki at DDR2 (setting [1]) is 5 to 25 nM; at DDR1 (setting [2]), less than 5 nM.
In the case of `COc1c(CO)cc(C(F)(F)F)cc1NC(=O)NC1CC2(C1)CN(c1cnc3[nH]ncc3c1)C2` [Example 312, 1-(2-(1H-pyrazolo[3,4-b]pyridin-5-yl)-2-azaspiro[3.3]heptan-6-yl)-3-(3-(hydroxymethyl)-2-methoxy-5-(trifluoromethyl)phenyl)urea], the inhibitory constant (Ki) at DDR2 (setting [1]) is 5 to 25 nM; on DDR1 (setting [2]), less than 5 nM.
Consider `O=C(NC1CC2(C1)CN(C(=O)c1cnn3ccncc13)C2)c1cccc(C(F)(F)F)c1` [Example C1, N-(2-(pyrazolo[1,5-a]pyrazine-3-carbonyl)-2-azaspiro[3.3]heptan-6-yl)-3-(trifluoromethyl)benzamide, reference compound], for which the “DDR2 Ki (nM)” value on DDR2 (setting [3]) was “did not show a binding affinity”. The Ki at DDR2 (setting [4]) and on DDR1 (setting [5]) was more than 500 nM throughout. Besides, the “DDR1 Ki (nM)” value on DDR1 (setting [3]) was “did not show a binding affinity”.
As to `O=C(Cc1cccc(C(F)(F)F)c1)NC1CC2(C1)CN(C(=O)c1cnn3ccncc13)C2` [Example C2, N-(2-(pyrazolo[1,5-a]pyrazine-3-carbonyl)-2-azaspiro[3.3]heptan-6-yl)-2-(3-(trifluoromethyl)phenyl)acetamide, reference compound], the “DDR2 Ki (nM)” value on DDR2 (setting [3]) is “did not show a binding affinity”. In addition, the Ki on DDR2 (setting [4]) and at DDR1 (setting [5]) was more than 500 nM each time. Also, the “DDR1 Ki (nM)” value at DDR1 (setting [3]) was “did not show a binding affinity”.
`O=C(NC1CC2(C1)CN(C(=O)Nc1cccc(C(F)(F)F)c1)C2)c1cnn2ccncc12` [Example C3, N-(2-((3-(trifluoromethyl)phenyl)carbamoyl)-2-azaspiro[3.3]heptan-6-yl) pyrazolo[1,5-a]pyrazine-3-carboxamide, reference compound]: the “DDR2 Ki (nM)” value on DDR2 (setting [3]) is on record as “did not show a binding affinity”. Besides, the Ki at DDR2 (setting [4]) and at DDR1 (setting [5]) was more than 500 nM throughout. Further, the “DDR1 Ki (nM)” value on DDR1 (setting [3]) is “did not show a binding affinity”.
